Assay results reported in patent US11160788B2, “Caspase-1 inhibition and uses thereof for prevention and treatment of neurological conditions” (priority 2016, dated 2021).
“Also recorded” adds a separate entry of the source.

How the values were obtained:
J20 mice = assay: Synaptophysin immunostaining and synaptic gene mRNA, treated symptomatic J20 mice; type: in vivo, mouse; conditions: hippocampus, immunohistochemistry, 50 mg/kg, 8 month old
Source text: FIG. 12: VX-765 reverses loss of synaptophysin immunohistological staining in J20 mice. (a) Immunohistological micrographs from pre-treated 5 month old J20 and 8 month old vehicle or VX-765 treated WT or J20 mouse hippocampus and cortex. (b) Quantitative analysis comparing synaptophysin immunostaining density between WT+Vehicle (n=4), J20+Vehicle (n=4), and J20+VX-765 (n=4) in the hippocampus (F(2,9)=7.974, p=0.0102, ANOVA, Tukey's post-hoc, * p<0.05) and cortex.
To assess AD-like pathology, immunohistochemical analyses were performed to detect amyloid deposition (anti-AβF25276)^5,6, microglial (Iba1) activation^7, astrogliosis (GFAP), synaptophysin protein levels on coronal brain sections. Multiplex MSD ELISA was used to assess Aβ levels and 38,40, and 42 subtypes, and II-1β brain levels. RT-PCR was used to assess levels of human APP^Sw/Ind.

mouse recombinant Casp1 = biological target: T1, mouse recombinant Casp1 (Mus musculus, UniProt P29452); assay: Caspase inhibition IC50, mouse recombinant Casp1; type: biochemical; conditions: read-out: IC50 against mouse Casp1
T1 sequence (P29452 119-296 limits assumed): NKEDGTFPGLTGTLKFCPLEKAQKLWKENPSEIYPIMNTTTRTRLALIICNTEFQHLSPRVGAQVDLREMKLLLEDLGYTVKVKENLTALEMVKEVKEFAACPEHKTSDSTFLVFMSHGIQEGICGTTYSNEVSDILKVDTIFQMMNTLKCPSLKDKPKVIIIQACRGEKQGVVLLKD
T1 sequence (P29452 315-402 limits assumed): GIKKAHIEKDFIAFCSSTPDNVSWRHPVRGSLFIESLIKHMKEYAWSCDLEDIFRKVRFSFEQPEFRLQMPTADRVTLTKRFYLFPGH
Procedure: FIG. 14: Selectivity and blood brain permeability of VX-765 and VRT-043198. (a-b) IC50 of VX-765 (a) and VRT-043198 (b) against human Casp1-10. (c-d) IC50 of VX-765 (c) and VRT-043198 (d) against mouse Casp1 and Casp11. (e) Blood brain barrier permeability and presence of VX-765 and VRT-043198 in 3 wild type and 4 J20 mice brain cortex and hippocampus and in plasma. Ratios of brain levels to plasma levels are calculated.

IC50 (mouse recombinant Casp1): 0.0521 µM
SMILES: CCO[C@@H]1OC(=O)C[C@@H]1NC(=O)[C@@H]1CCCN1C(=O)[C@@H](NC(=O)c1ccc(N)c(Cl)c1)C(C)(C)C [VX-765, (S)-1-((S)-2-{[1-(4-amino-3-chloro-phenyl)-methanoyl]-amino}-3,3-dimethyl-butanoyl)-pyrrolidine-2-carboxylic acid ((2R,3S)-2-ethoxy-5-oxo-tetrahydro-furan-3-yl)-amide]
synaptophysin levels (J20 mice): increased synaptophysin levels; also recorded: significantly increased and returned to normal levels
